Assay results from the supplement of paper PMC8967900.

Assays:
Assay in all cases: selective drug sensitivity score (sDSS, relative to normal bone marrow) (sDSS (score)); higher = more potent and effective on the cell line relative to normal bone marrow cells
Conditions in all cases: 72 h
CCRF-CEM = system: CCRF-CEM
P12-ICHIKAWA = system: P12-ICHIKAWA
LC4-1 = system: LC4-1
REH = system: REH
COG-LL-319h = system: COG-LL-319h
MN-60 = system: MN-60
TMD5 = system: TMD5
COG-LL-332h = system: COG-LL-332h
COG-LL-394h = system: COG-LL-394h
PEER = system: PEER
SUP-B15 = system: SUP-B15
ALL-SIL = system: ALL-SIL
KASUMI-9 = system: KASUMI-9
DND-41 = system: DND-41
KASUMI-2 = system: KASUMI-2
HPB-ALL = system: HPB-ALL
COG-LL-355h = system: COG-LL-355h
KASUMI-10 = system: KASUMI-10
NALL-1 = system: NALL-1
MOLT-16 = system: MOLT-16
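Further: ALL cell lines in 384-well plates, five doses spanning 10,000-fold, each plate scaled between vehicle and 100 µmol/L benzalkonium chloride controls, sDSS an adapted area-under-curve metric.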

| Compound | selective drug sensitivity score (CCRF-CEM) | selective drug sensitivity score (P12-ICHIKAWA) | selective drug sensitivity score (LC4-1) | selective drug sensitivity score (REH) | selective drug sensitivity score (COG-LL-319h) | selective drug sensitivity score (MN-60) | selective drug sensitivity score (TMD5) | selective drug sensitivity score (COG-LL-332h) | selective drug sensitivity score (COG-LL-394h) | selective drug sensitivity score (PEER) | selective drug sensitivity score (SUP-B15) | selective drug sensitivity score (ALL-SIL) | selective drug sensitivity score (KASUMI-9) | selective drug sensitivity score (DND-41) | selective drug sensitivity score (KASUMI-2) | selective drug sensitivity score (HPB-ALL) | selective drug sensitivity score (COG-LL-355h) | selective drug sensitivity score (KASUMI-10) | selective drug sensitivity score (NALL-1) | selective drug sensitivity score (MOLT-16) |
| --- | --- | --- | --- | --- | --- | --- | --- | --- | --- | --- | --- | --- | --- | --- | --- | --- | --- | --- | --- | --- |
| CC(C)[C@H]1C(=O)N[C@@H](CCCNC(=N)N)C(=O)NCC(=O)N[C@@H](CC(=O)O)C(=O)N[C@H](Cc2ccccc2)C(=O)N1C [Cilengitide] (top concentration 10000 nM) | 0 | 0 | 0 | 0 | 0 | 0 | 7.5 | 0 | 0 | 0 | 0 | 0 | 0 | 0 | 0 | 0 | 0 | 0 | 11.8 | 0 |
| CC(C)(C)c1nc(-c2cccc(NS(=O)(=O)c3c(F)cccc3F)c2F)c(-c2ccnc(N)n2)s1 [Dabrafenib] (top concentration 2500 nM) | 0.58 | 1.18 | 6.48 | -1.52 | -0.92 | -0.92 | 1.18 | 1.68 | -0.22 | 3.48 | 1.88 | 3.48 | 3.58 | -1.52 | -1.52 | 2.98 | 0.38 | 0.58 | -1.42 | 4.68 |
| CC(=O)c1cc2c(o1)C(=O)c1ccccc1C2=O [Napabucasin] (top concentration 20000 nM) | -1.08 | -1.28 | -0.38 | -1.58 | -0.18 | -2.08 | -1.28 | 2.32 | -9.68 | 0.62 | 1.22 | 2.22 | -1.28 | -0.18 | -3.38 | -0.98 | -0.18 | 0.92 | -7.38 | 0.12 |
| COc1cc2c(cc1-c1c(C)noc1C)ncc1[nH]c(=O)n([C@H](C)c3ccccn3)c12 [I-BET151] (top concentration 10000 nM) | 0.96 | 4.06 | 7.26 | -2.24 | 10.7 | 6.76 | -3.54 | -2.24 | 0.86 | 1.26 | 5.96 | -2.14 | 11.2 | 0.86 | -2.94 | 1.36 | 1.86 | 5.66 | -0.14 | 5.96 |
| CC(=O)c1c(C)c2cnc(Nc3ccc(N4CCNCC4)cn3)nc2n(C2CCCC2)c1=O [Palbociclib] (top concentration 10000 nM) | 4.38 | 4.78 | 4.38 | 3.08 | 0.38 | -0.62 | -5.22 | 3.68 | -5.62 | 5.38 | 2.38 | -2.12 | 8.78 | 2.48 | 0.88 | 2.78 | 2.88 | 0.88 | -1.72 | 8.58 |
| O=C(/C=C/c1cccc(S(=O)(=O)Nc2ccccc2)c1)NO [Belinostat] (top concentration 10000 nM) | 8.7 | 8.6 | 9.7 | 5.1 | 11.8 | 1.8 | 6.3 | 7.9 | 2.1 | 7.8 | 8.5 | 8.9 | 8.9 | 7.2 | 17.4 | 8.4 | 10.2 | 7.6 | 2.4 | 10.1 |
| Nc1ccn([C@@H]2O[C@H](CO)[C@@H](O)C2(F)F)c(=O)n1 [Gemcitabine] (top concentration 1000 nM) | 14.5 | 15.8 | 16.7 | 13 | 20.5 | -0.34 | -7.84 | 17.8 | -8.04 | 5.06 | 17.1 | 12.1 | 16.3 | 9.26 | 15.1 | 0.96 | 7.16 | 16.8 | 10.3 | 21.5 |
| Cc1nc(Nc2n[nH]c3c2CN(C(=O)N[C@H](CN(C)C)c2ccccc2)C3(C)C)c2sccc2n1 (top concentration 10000 nM) | 6.98 | 3.68 | 3.98 | -3.72 | 4.28 | 5.08 | -7.92 | 7.58 | -7.92 | -3.12 | 12.8 | -5.82 | 11.6 | 0.98 | 3.28 | -1.72 | 3.98 | 1.68 | -7.42 | 22.7 |
| Cn1cc(-c2[nH]c3cc(NC(=O)[C@H](N)C4CCCCC4)cc4c3c2C=NNC4=O)cn1 (top concentration 10000 nM) | 6.08 | 7.38 | 7.58 | 10.2 | 11.5 | -1.82 | -0.12 | 4.98 | -0.72 | 5.68 | 6.58 | 9.18 | 7.88 | 10.3 | -6.12 | 9.68 | 1.98 | 5.88 | 4.58 | 9.68 |
